The values below come from patent publication US5196446A (priority 1991, dated 1993).

For data set [1] the following is noted: as a result of inhibiting other protein kinases; cited from earlier work.
Another data set concerns other protein kinases. The following applies: PTK inhibitors which compete with ATP; cited from earlier work.
Data set [2] deals with T1, EGF receptor tyrosine kinase (Homo sapiens, UniProt P00533).
T1 construct: WGA-purified EGF receptor from A431 cells; endogenous in cells; host or cells: A431 cells (solubilized, receptor enriched on WGA-agarose)
The format is biochemical. The conditions noted are these: for IC50: read-out: IC50 (concentration of inhibitor required to inhibit 50% of polyGAT phosphorylation).

The target of data set [3] is T2, EGF receptor (Homo sapiens, UniProt P00533). On the set-up: EGF receptor in membranes of A431 cells; host or cells: membranes of A431 cells. The conditions noted are these: cited from earlier work.
For data set [4], the system named is cyclic adenosine 3',5'-monophosphate (cAMP)-dependent protein kinase. The following applies: in words; compared with EGF receptor autophosphorylation; cited from earlier work.
The target in data set [5] is T2, EGF receptor. Kind of data set: Inhibition of EGFR autophosphorylation (A431 cell lysate, EGF stimulation). Details: EGF receptor in membranes of A431 cells; host or cells: membranes of A431 cells. In kind it is biochemical. How it is done:
Inhibition of EGFR Autophosphorylation
A431 cells were grown to confluence on human fibronectin coated tissue culture dishes. After washing 2 times with ice-cold PBS, cells were lysed by the addition of 500 μl/dish of lysis buffer (50 mmol Hepes, pH 7.5, 150 mmol NaCl, 1.5 mmol Mg Cl2, 1 mmol EGTA, 10% glycerol, 1% triton X-100, 1 mmol PMSF, 1 mg/ml aprotinin, I mg/ml leupeptin) and incubating 5 minutes at 4° C. After EGF stimulation ([…] 10 minutes at 37° C.) immunoprecipitation was performed with anti EGF-R (Ab 108) and the autophosphorylation reaction (50 μl aliquots, 3 μCi [γ-^32 P]ATP) sample was carried out in the presence of 2 or 10 μM of compound, for 2 minutes at 4° C. The reaction was stopped by adding hot electrophoresis sample buffer. SDS-PAGE analysis (7.5% els) was followed by autoradiography and the reaction was quantitated by densitometry scanning of the x-ray films. In order to test the compounds for selective inhibition, the procedure is repeated using PDGF stimulation in place of EGF stimulation.

The target in data set [6] is T2, EGF receptor. The following applies: read-out: Km for ATP in autophosphorylation; 15° C.; 10-s assay. How it is done:
ATP and EGF Dependence of Autophosphorylation
With use of the 10-s assay protocol, the EGF concentration dependence of EGFRK autophosphorylation is determined.

As to `O=c1c(-c2ccc(O)cc2)coc2cc(O)cc(O)c12` [genistein], in data set [1], the cytotoxicity result was “highly cytotoxic”. Also, the “inhibition of other protein kinases” value with other protein kinases is listed as “inhibit other protein kinases”. As to `N#CC(C#N)=Cc1ccc2[nH]ccc2c1` [Example 5, 5-Indolidene malononitrile], the IC50 in data set [2] stood at 2.2 mM. In the case of `O=c1c(O)c(-c2ccc(O)c(O)c2)oc2cc(O)cc(O)c12` [quercetin], the cytotoxicity result in data set [1] was “highly cytotoxic”. In addition, in the data set on other protein kinases, the “inhibition of other protein kinases” value is listed as “inhibit other protein kinases”.

Regarding `O=CN/C=C/c1cc(O)ccc1O` [erbstatin], the “concentration required to inhibit EGF receptor autophosphorylation” value at EGF receptor [3] (in words, compared with cAMP-dependent protein kinase) is recorded as “Low concentrations”. The “inhibition of EGF receptor autophosphorylation” value on EGF receptor [3] (membranes of A431 cells) is “inhibits the autophosphorylation of the EGF receptor”. Besides, the “concentration required to inhibit cAMP-dependent protein kinase” value in data set [4] is on record as “much higher concentrations”. With `N#CC(C#N)=Cc1c[nH]cn1` [Example 3, 4-Imidazolidene malononitrile], in data set [2], the IC50 stood at 2.6 mM. Turning to `N#CC(=Cc1ccc2c(c1)OCO2)c1ccccn1` [Example 8, 2-(2-pyridyl)-3-[3,4-(methylenedioxy)phenyl]-2-propenenitrile], on EGF receptor [5], the IC50 is 1000 nM. By Km is commonly meant the substrate concentration at which the rate is half of its maximum. In the case of `Nc1ncnc2c1ncn2[C@@H]1O[C@H](COP(=O)(O)OP(=O)(O)OP(=O)(O)O)[C@@H](O)[C@H]1O` [ATP, adenosine triphosphate], the values for the Km (on EGF receptor [6]; in data set [2] (read-out: Km for ATP in the poly(GAT) assay)) were 7.2 µM and 2900 nM, respectively.
